Patent US20060110790A1, “Expression system for large functional proteins” (priority 2002, published 2006)

Target: T1, ABCR K939M, K1978M and K939M/K1978M mutants (Homo sapiens, UniProt P78363, K1978M/K969M)
T1 construct: made in house
Assay: ATPase activity of Walker A lysine-to-methionine mutants
Type: biochemical
Settings: 50 μM all-trans retinal
Procedure: FIG. 4. Lysine to methionine Walker A mutations in ABCR abolish ATP hydrolysis but not ATP binding. A. ATPase activity was measured in the absence (white bars) or presence of 50 μM all-trans retinal (grey bars). WT, wild-type; K969M in NBD1; K1978M in NBD2; MM, K969M/K1978M double mutant; NCM, N-half co-expressed with C-half containing a K1978M mutation. B. ATP photoaffinity labeling was carried out by irradiating membranes from COS-1 cells expressing wild-type (WT), K969M, K1978M, or K969M/K1978M double mutant (MM) with 3 μM 8-azido-[α-^32P]ATp. The labeled protein was isolated with Rim3F4-Sepharose and separated on SDS gels. Left panel: gel stained with Coomassie blue. Right panel: corresponding ^32P labeling obtained with a phosphorimager. All mutant proteins were labeled with 8-azido-[α-^32P]ATP, but the double mutant bound less nucleotide.
ATPase activity was measured as described previously (Ahn, J., Wong, J. T., and Molday, R. S. (2000) J Biol Chem 275(27), 20399-405) using 50 μM [α^32P]ATP and thin layer chromatography. The all-trans retinal concentration was determined spectrophotometrically (λ383 nm=42.88 mM^−1 cm^−1). Protein concentration was estimated from the eluate before reconstitution by laser densitometry of Coomassie blue stained gels using bovine serum albumin as a standard. […]

T1 sequence (P78363 whole entry K969M/K1978M): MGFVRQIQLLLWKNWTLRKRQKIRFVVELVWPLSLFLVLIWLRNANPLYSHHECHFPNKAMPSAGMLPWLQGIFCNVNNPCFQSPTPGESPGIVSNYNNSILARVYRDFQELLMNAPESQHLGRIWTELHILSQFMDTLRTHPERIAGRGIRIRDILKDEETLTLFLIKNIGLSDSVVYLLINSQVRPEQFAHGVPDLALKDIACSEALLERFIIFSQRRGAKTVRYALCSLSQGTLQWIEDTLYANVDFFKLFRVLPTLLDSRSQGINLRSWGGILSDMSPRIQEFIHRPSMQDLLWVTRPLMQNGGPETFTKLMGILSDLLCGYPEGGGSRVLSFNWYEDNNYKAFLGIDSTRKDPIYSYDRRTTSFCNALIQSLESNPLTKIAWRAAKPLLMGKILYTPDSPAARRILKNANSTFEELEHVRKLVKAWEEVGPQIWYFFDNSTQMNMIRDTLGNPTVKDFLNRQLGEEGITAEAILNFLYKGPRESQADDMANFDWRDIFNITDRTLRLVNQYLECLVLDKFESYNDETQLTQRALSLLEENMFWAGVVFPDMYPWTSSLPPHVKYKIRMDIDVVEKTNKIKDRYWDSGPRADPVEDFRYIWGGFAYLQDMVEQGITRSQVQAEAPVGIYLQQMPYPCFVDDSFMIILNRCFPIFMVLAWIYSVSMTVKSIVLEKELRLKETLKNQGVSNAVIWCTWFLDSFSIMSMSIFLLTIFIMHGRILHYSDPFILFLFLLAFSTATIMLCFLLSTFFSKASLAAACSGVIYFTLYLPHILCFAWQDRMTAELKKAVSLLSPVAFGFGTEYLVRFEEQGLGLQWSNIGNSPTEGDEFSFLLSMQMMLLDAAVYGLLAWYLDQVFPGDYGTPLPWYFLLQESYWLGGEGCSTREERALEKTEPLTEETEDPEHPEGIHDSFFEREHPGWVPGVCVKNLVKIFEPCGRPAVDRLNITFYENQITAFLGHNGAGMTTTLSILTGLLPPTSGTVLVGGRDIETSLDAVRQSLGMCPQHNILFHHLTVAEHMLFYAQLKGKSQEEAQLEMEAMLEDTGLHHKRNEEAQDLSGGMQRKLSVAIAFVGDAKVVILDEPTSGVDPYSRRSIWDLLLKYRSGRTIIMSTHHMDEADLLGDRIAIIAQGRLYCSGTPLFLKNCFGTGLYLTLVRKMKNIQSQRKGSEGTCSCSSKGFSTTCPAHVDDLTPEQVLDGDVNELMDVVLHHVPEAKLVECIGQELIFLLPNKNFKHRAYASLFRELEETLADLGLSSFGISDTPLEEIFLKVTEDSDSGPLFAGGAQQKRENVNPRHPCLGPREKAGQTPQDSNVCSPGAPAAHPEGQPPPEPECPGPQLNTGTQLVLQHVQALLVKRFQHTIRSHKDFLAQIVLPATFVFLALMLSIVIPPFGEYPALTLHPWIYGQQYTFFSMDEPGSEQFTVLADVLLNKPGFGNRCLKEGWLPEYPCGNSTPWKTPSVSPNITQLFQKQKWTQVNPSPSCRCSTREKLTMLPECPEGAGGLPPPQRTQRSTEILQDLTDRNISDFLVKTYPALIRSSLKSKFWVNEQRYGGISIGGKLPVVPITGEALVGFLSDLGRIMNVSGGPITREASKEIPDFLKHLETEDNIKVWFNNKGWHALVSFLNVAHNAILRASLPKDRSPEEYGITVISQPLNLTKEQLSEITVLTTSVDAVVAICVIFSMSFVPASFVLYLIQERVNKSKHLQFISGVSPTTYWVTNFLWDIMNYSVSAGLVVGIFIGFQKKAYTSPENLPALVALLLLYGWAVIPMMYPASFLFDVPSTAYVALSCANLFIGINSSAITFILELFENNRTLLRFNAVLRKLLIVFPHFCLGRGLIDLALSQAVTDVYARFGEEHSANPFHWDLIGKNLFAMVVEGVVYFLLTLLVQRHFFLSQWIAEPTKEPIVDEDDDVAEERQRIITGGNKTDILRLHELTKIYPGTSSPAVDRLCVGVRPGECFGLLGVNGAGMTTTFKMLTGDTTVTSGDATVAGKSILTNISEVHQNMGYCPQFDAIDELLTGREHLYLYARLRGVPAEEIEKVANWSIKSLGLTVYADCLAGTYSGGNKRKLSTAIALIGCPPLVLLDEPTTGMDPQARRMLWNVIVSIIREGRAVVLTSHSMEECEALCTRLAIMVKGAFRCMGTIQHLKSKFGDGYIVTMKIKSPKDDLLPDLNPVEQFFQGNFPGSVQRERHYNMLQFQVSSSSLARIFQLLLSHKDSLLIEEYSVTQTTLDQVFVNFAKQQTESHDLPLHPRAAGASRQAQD

- retinal activation of ATPase activity: abolished retinal activation
SMILES: CC1=C(/C=C/C(C)=C/C=C/C(C)=C/C=O)C(C)(C)CCC1 [all-trans retinal]
